Several values for one entry are separate records, joined by “and”; a condition that tells them apart may be missing. Equal values may be shown once. Read-outs that look alike come from different tables or passages of the source.
Key:
[1] = molecular target: T1, human A2B adenosine receptor (hA2BAR) (Homo sapiens, UniProt P29275); assay: Activation of human A2B adenosine receptor at 10 μM; format: cell-based; conditions: CHO cells
T1 sequence (P29275 1-332): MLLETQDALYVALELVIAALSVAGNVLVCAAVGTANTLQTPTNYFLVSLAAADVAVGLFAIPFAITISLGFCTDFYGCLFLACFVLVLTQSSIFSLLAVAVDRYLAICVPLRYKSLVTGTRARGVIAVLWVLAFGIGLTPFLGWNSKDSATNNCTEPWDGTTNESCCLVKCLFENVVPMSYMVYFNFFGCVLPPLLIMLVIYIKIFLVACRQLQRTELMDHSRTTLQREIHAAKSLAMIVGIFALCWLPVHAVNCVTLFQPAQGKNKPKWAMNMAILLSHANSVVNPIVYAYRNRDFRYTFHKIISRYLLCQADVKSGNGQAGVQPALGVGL

[2] = molecular target: T2, rat A3 adenosine receptor (Rattus norvegicus, UniProt P28647); assay: Binding at rat A3 adenosine receptor ([125I]I-AB-MECA, CHO cell membranes); conditions: rat A3 AR in CHO cells; unit nM printed in b194 only; read-out: Ki(rA3AR)
T2 construct: expressed in transfected cells; host or cells: CHO cells
T2 sequence (P28647 1-320): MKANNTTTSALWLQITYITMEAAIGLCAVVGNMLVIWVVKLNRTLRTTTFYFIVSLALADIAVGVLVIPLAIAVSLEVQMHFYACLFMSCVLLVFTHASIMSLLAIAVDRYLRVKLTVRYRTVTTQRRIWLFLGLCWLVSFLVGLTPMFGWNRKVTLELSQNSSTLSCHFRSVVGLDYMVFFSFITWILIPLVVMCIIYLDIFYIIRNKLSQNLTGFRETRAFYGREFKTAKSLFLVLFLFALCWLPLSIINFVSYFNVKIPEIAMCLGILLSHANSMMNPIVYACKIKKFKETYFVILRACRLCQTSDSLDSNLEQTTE
Protocol: (§1) Striatal and forebrain tissues from Wistar rats were homogenized in ice-cold 50 mM Tris-HCl buffer, pH 7.4, using an electric homogenizer. The homogenate was centrifuged at 20,000 g for 10 min at 4° C., and the pellet was washed in fresh buffer. The final pellet was stored at −80° C. until the binding experiments. The protein concentration was measured using the Bradford assay. […] The mixtures were incubated at 37° C. for 60 min. […] Filters were washed three times with 9 ml ice-cold buffer. Radioactivity was determined in a Beckman 5500B γ-counter. Statistical analysis Binding and functional parameters were calculated using Prism 5.0 software (GraphPAD, San Diego, Calif., USA). IC50 values obtained from competition curves were converted to Ki values using the Cheng-Prusoff equation.

[3] = molecular target: T3, human A3 adenosine receptor (Homo sapiens, UniProt P0DMS8); assay: Binding at human A3 adenosine receptor ([125I]I-AB-MECA, CHO cell membranes); design: expressed in transfected cells; host or cells: CHO cells
T3 sequence (P0DMS8 1-318): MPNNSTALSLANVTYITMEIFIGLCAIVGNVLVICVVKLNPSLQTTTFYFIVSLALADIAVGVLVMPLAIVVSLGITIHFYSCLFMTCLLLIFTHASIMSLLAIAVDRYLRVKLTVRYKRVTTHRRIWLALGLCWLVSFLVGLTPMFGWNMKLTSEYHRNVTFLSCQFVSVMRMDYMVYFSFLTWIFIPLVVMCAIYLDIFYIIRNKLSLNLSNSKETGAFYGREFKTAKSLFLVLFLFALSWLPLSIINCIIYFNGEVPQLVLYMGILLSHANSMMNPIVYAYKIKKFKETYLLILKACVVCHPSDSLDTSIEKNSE
Protocol: as §1

[4] = molecular target: T3, human A3 adenosine receptor
Protocol: (§2) The cyclic AMP accumulation assay was performed as follows. Intracellular cyclic AMP levels were measured with a competitive protein binding method. […] After centrifugation and resuspension in medium, cells were plated in 24-well plates in 1.0 ml medium. […] The reaction was terminated by removing the supernatant, and cells were lysed upon the addition of 200 μL of 0.1 M ice-cold HCl. The cell lysate was resuspended and stored at −20° C. For determination of cyclic AMP production, protein kinase A (PKA) was incubated with [^3H]cyclic AMP (2 nM) in K2HPO4/EDTA buffer (K2HPO4, 150 mM; EDTA, 10 mM), 20 μL of the cell lysate, and 30 μL 0.1 M HCl or 50 μL of cyclic AMP solution (0-16 pmol/200 μL for standard curve). Bound radioactivity was separated by rapid filtration through Whatman GF/C filters and washed once with cold buffer. Bound radioactivity was measured by liquid scintillation spectrometry.
(§3) Forskolin (10 μM) was used to stimulate cyclic AMP levels.

[5] = molecular target: T3, human A3 adenosine receptor; assay: Cyclic AMP accumulation assay (inhibition of forskolin-stimulated cAMP), CHO cells expressing human A3 adenosine receptor
Protocol: as §2, §3

human A1 receptors = molecular target: T4, human A1 receptors (Homo sapiens, UniProt P30542); assay: Binding at human A1 adenosine receptor ([3H]R-PIA, CHO cell membranes); conditions: mean ± s.e.m., n = 3-5, read-out: Ki(hA1AR)
T4 construct: expressed in transfected cells
T4 sequence (P30542 1-326): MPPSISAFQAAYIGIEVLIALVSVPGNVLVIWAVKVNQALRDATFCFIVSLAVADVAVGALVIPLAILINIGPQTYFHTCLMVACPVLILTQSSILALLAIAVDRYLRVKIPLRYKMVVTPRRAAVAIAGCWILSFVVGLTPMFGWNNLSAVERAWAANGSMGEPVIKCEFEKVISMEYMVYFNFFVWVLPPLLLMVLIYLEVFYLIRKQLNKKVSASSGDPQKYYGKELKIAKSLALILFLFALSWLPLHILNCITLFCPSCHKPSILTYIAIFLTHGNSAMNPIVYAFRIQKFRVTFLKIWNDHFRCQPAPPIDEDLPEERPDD
Protocol: (§4) Binding assays at the A1 and A2A receptors. […] Reaction was terminated by filtration with GF/B filters.
(§5) Statistical analysis Binding and functional parameters were calculated using Prism 5.0 software (GraphPAD, San Diego, Calif., USA). IC50 values obtained from competition curves were converted to Ki values using the Cheng-Prusoff equation.

human A2A receptors = molecular target: T5, human A2A receptors (Homo sapiens, UniProt P29274); assay: Binding at human A2A adenosine receptor ([3H]CGS21680, HEK-293 cell membranes); conditions: [3H]CGS 21680; mean ± s.e.m., n = 3-5; read-out: Ki(hA2AAR)
T5 construct: expressed in transfected cells
T5 sequence (P29274 whole entry): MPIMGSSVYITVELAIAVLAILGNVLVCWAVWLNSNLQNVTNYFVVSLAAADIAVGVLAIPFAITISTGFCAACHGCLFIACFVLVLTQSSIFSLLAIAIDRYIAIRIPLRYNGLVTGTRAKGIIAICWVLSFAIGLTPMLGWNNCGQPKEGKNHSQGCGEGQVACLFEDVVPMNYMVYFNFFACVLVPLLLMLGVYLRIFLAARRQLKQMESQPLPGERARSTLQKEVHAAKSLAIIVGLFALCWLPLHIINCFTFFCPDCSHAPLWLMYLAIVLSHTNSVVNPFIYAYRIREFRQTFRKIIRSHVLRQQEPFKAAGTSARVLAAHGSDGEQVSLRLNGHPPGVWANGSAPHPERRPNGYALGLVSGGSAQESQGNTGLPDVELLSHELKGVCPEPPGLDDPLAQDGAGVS
Protocol: as §4, §5

[6] = molecular target: T6, human A1 adenosine receptor (Homo sapiens, UniProt P30542); assay: Cyclic AMP accumulation assay (inhibition of forskolin-stimulated cAMP), CHO cells expressing human A1 adenosine receptor
T6 sequence (P30542 1-326): T4 sequence (P30542 1-326)
Protocol: as §2, §3

rat A1 receptors = rat A1 receptors (Rattus norvegicus, UniProt P25099); assay: biochemical
Chain of rat A1 receptors (P25099 whole entry, the tested form may be a part): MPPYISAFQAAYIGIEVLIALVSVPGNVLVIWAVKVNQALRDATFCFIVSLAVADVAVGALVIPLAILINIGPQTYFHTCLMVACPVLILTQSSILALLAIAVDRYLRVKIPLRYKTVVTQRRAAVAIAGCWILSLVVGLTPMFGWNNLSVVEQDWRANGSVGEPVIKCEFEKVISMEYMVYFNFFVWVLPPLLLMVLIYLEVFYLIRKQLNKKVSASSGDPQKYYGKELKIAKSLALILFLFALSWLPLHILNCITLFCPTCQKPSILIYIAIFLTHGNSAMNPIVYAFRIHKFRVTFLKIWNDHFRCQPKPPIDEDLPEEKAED
Protocol: Striatal and forebrain tissues from Wistar rats were homogenized in ice-cold 50 mM Tris-HCl buffer, pH 7.4, using an electric homogenizer. The homogenate was centrifuged at 20,000 g for 10 min at 4° C., and the pellet was washed in fresh buffer. The final pellet was stored at −80° C. until the binding experiments. The protein concentration was measured using the Bradford assay.
as §4, §5

intact mouse heart = assay: Anti-ischemic cardioprotection, Langendorff-perfused mouse heart model of global ischemia/reperfusion; format: in vivo; conditions: 30 nM
Protocol: Anti-ischemic Cardioprotection. Langendorff perfusion of the mouse hearts was carried out. Mice were anesthetized with 60 mg/kg sodium pentobarbital (i.p.), and heart excised in ice-cold perfusion buffer. The aorta was cannulated and retrograde perfused in the Langendorff mode at a pressure of 55 mmHg. To assess isovolumic function, fluid-filled polyvinyl plastic film balloons were inserted into the left ventricle via the left atrium. Balloons were connected to a fluid-filled pressure transducer to measure the left ventricular developed pressure (LVDP), +dP/dt, −dP/dt, and heart rate. To induce normothermic global ischemia and reperfusion, retrograde perfusion of the aorta was stopped, and hearts were immersed in the same perfusion buffer in a water-jacketed bath maintained at 37° C. After 35-min ischemia and 30-min reperfusion, the recovery of left ventricular function was determined by quantifying the LVDP, +dP/dt, and −dP/dt. To quantify the infarct, the hearts were retrograde perfused with 1% triphenyltetrazolium chloride (TTC) in perfusion buffer for 10 minutes after 120-min reperfusion, which allowed washout of pyridine nucleotides from necrotic cells as required for TTC staining. The heart was then immersed in the same TTC buffer for another 10 minutes. The hearts were frozen, cut into six or seven 1 mm slices from apex to base, and scanned for measurement of infarct size by computer morphometry (Image-Pro Plus, version 5.0, Media Cybernetics, Inc, Silver Spring, Md.). The infarct size was quantified as the area of necrosis normalized to the total ventricular area.

[7] = n = 6, 35 global ischemia followed by reperfusion

CNC(=O)[C@@]12C[C@@H]1[C@@H](n1cnc3c(NCC(c4ccccc4)c4ccccc4)nc(Cl)nc31)[C@H](O)[C@@H]2O [Compound 34]
% Activation (hA2BAR) at 10 μM [1]: 46% | Ki [2]: 10 ± 4 nM | affinity at the human A3 adenosine receptor (in words) ([3]; 2-chloro, 5′-N-methylamide substituted compounds): subnanomolar | Ki ([3]; [125I]I-AB-MECA, mean ± s.e.m., n = 3-5, read-out: Ki(hA3AR)): 0.69 ± 0.02 nM | Selectivity for the human A3 adenosine receptor in comparison to the A1 adenosine receptor ([3]; ratio of Ki hA1 / hA3): 1900 fold | % Activation (hA3AR) at 10 μM [4]: 107 ± 9% | agonist efficacy at the A3 adenosine receptor (inhibition of forskolin-stimulated adenylate cyclase) ([5]; concentration of 10 μM): agonist | Ki (human A1 receptors): 1300 ± 100 nM | Ki (human A2A receptors): 1600 ± 100 nM

CNC(=O)C12CC1C(n1cnc3c(NC4CCCC4)nc(Cl)nc31)C(O)C2O (stereo not drawn) [Compound 104, (1′S,2′R,3′S,4′S,5′S) -4′-[6-(cyclopentylamino)-2-chloro-purin-9-yl]-2′,3′-dihydroxy-bicyclo[3.1.0]hexane-1′-carboxylic acid methyl amide]
EC50 [6]: 8.2 nM | agonist character at human A1 (concentration response curves, cAMP) ([6]; intact transfected CHO cells): full agonist | Ki (rat A1 receptors): 17.4 nM | recovery of left ventricular developed pressure, +dP/dt, −dP/dt and heart rate (in words) (intact mouse heart): improved significantly | Recovery of +dP/dt (intact mouse heart; [7]): 21.1 ± 4.9 % of baseline prior to ischemia/reperfusion | Recovery of HR (intact mouse heart; [7]): 93.8 ± 19.3 % of baseline prior to ischemia/reperfusion | Recovery of LVDP (intact mouse heart; [7]): 26.0 ± 4.8 % of baseline prior to ischemia/reperfusion | Recovery of −dP/dt (intact mouse heart; [7]): 24.6 ± 7 % of baseline prior to ischemia/reperfusion | % necrosis (infarct size, TTC staining) (intact mouse heart; n = 6, area of necrosis normalized to total ventricular area): 15±7% and 15.0 ± 6.9% | anti-ischemic cardioprotective effect (in words) (intact mouse heart; perfused until induction of ischemia): potent anti-ischemic cardioprotective effect | infarct size (in words) (intact mouse heart; computer morphometry after TTC staining): significantly reduced | EC50 [5]: 2.8 nM | % Activation (hA3AR) at 10 μM ([5]; 10 μM, relative to 10 μM Cl-IB-MECA): 101 ± 10% | agonist character at human A3 (concentration response curves, cAMP) ([5]; intact transfected CHO cells): full agonist
